From ChEMBL document CHEMBL2074023, “Reversal of acquired resistance to doxorubicin in K562 human leukemia cells by astemizole” (Biol Pharm Bull, 2000)

Columns and labels:
[1] = target: T1, ATP-dependent translocase ABCB1 (Homo sapiens, UniProt P08183); assay: TP_TRANSPORTER: increase in Doxorubicin intracellular accumulation (Doxorubicin: 4 uM, Astemizole: 3 uM) in K562/DOX cells; assay type: functional, cell-based; settings: k562/adr
[2] = target: T1, ATP-dependent translocase ABCB1; assay: TP_TRANSPORTER: inhibition of Azidopine photoaffinity labelling (Azidopine: 0.1 uM, Astemizole: 10 uM) in membranes from K562/DOX cells; assay type: functional, cell membranes, Membrane; settings: k562/adr

T1 sequence (P08183 whole entry): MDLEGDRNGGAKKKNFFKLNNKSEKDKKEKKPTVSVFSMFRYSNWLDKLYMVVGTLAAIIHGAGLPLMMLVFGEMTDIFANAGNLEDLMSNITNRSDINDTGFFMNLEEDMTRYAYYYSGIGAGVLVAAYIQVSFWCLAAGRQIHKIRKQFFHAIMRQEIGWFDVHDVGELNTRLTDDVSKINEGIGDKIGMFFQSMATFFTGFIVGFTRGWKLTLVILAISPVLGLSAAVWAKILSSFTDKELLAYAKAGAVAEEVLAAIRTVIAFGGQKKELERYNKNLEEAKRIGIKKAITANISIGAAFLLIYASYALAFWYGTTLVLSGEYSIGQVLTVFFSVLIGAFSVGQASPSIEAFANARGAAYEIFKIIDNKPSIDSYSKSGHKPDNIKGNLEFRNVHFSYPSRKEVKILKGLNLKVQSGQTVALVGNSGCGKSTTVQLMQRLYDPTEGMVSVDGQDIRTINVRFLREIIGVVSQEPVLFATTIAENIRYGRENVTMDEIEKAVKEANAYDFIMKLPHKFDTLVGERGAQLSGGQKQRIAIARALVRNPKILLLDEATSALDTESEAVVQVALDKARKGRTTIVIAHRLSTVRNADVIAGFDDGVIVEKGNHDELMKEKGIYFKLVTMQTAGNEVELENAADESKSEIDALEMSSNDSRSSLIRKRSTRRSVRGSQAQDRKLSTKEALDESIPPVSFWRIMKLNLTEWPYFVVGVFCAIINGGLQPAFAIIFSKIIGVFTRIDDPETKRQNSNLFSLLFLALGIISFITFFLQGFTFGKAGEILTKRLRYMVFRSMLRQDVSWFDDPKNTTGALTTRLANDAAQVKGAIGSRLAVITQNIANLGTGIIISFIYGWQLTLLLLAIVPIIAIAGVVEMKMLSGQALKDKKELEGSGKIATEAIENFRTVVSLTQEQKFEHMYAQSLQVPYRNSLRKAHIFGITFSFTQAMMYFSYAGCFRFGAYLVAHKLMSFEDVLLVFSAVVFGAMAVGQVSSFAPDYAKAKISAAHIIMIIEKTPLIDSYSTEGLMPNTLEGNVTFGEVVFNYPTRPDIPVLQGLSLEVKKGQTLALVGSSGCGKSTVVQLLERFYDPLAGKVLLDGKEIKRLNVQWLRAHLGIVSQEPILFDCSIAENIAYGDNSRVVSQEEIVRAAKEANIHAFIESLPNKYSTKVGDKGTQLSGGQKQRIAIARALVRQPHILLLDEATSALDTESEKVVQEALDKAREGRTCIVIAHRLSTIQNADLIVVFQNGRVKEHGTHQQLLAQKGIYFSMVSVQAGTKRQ

Structure (SMILES): COc1ccc(CCN2CCC(Nc3nc4ccccc4n3Cc3ccc(F)cc3)CC2)cc1 [ASTEMIZOLE]
- Activity [1]: inhibitor [+]
- Activity [2]: inhibitor [+]
